Like-named read-outs stand apart in the source and are kept apart here.
Key:
Assay in all cases: 96-well microtiter plate assay, fungal growth inhibition
F. oxysporum = format: cell-based, Fusarium oxysporum; conditions: for inhibition at 0.3 µM / inhibition at 3 µM / inhibition at 30 µM: Fusarium oxysporum, read-out: Percent inhibition−Percent Stimulation±SEM; for Percent inhibition−Percent Stimulation±SEM: F. oxysporum
Excerpt: (§1) Pathogen production. Isolates of Colletotrichum acutatum Simmonds, Colletotrichum fragariae Brooks, and Colletotrichum gloeosporioides (Penz.) Penz. & Sacc. in Penz. were obtained from B. J. Smith, USDA, ARS, Small Fruit Research Station, Poplarville, Miss. Colletotrichum fragariae (isolate CF63), C. acutatum (isolate CAGoff), and C. gloeosporioides (isolate CG162) were used for all pathogen and bioautography studies. Isolate CF63 is one of the most virulent isolates at infecting strawberry plants and inducing both crown and fruit rot (Smith and Black, 1990). CF63, CAGoff, and CG162 were used as standard test isolates because of our extensive knowledge of these isolates and their known fungicide sensitivity profiles in both bioautography and microtiter formats. The three Colletotrichum species were isolated from strawberry (Fragaria x ananassa Duchesne). Botrytis cinerea Pers.: Fr, was isolated from commercial grape (Vitis vinifera L.) and Fusarium oxysporum Schlechtend: Fr from orchid (Cynoches sp.). Phomopsis viticola (Sacc.) and P. obscurans (Ellis & Everh.) Sutton were from Mike A. Ellis, Ohio State University, Wooster, Ohio. Fungi were grown on potato-dextrose agar (PDA, Difco, Detroit, Mich.) in 9 cm petri dishes and incubated in a growth chamber at 24±2° C. and under cool-white fluorescent lights ([…]·m^−2·sec^−1 light) with 12 hour photoperiod.
(§2) Inoculum preparation. Conidia were harvested from 7-10 day-old cultures by flooding plates with 5 mL of sterile distilled water and dislodging conidia by softly brushing the colonies with an L-shaped glass rod. Conidial suspensions were filtered through sterile miracloth (Calbiochem-Novabiochem Corp., La Jolla, Calif.) to remove mycelia. Conidia concentrations were determined photometrically, from a standard curve based on the percent of transmittance (% T) at 625 nm and suspensions were then adjusted with sterile distilled water to a concentration of 1.0×10^6 conidia/mL.
(§3) Microtiter assay. A standardized 96-well microtiter plate assay developed for discovery of natural product fungicidal agents was used to evaluate naturally occurring antifungal agents from Macaranga monanara. A 96-well microtiter assay was used to determine sensitivity of B. cinerea, C. acutatum, C. fragariae, C. gloeosporioides, F. oxysporum, Phomopsis viticola, and P. obscurans to the various antifungal agents in comparison with known fungicidal standards. Vinclozolin, captan, and thiabendazole, which represent three different modes of action, were used as standards in this experiment. Each fungus was challenged in a dose-response format using test compounds where the final treatment concentrations were 0.3, 3.0 and 30.0 μM. Microtiter plates (Nunc MicroWell, untreated; Roskilde, Denmark) were covered with a plastic lid and incubated in a growth chamber as described previously for fungal growth. Growth was then evaluated by measuring absorbance of each well at 620 nm using a microplate photometer (Packard Spectra Count, Packard Instrument Co., Downers Grove, Ill.). Microtiter plates (Nunc MicroWell, untreated; Roskilde, Denmark) were covered with a plastic lid and incubated in a growth chamber at 24±1° C. and 12 hour photoperiod under 60±5 μmol light. Growth was then evaluated by measuring absorbance of each well at 620 nm using a microplate photometer (Packard Spectra Count, Packard Instrument Co., Downers Grove, Ill.).
(§4) Microbioassy Experimental Design. Chemical sensitivity each of B. cinerea, C. acutatum, C. fragariae, C. gloeosporiodes, F. oxysporum, Phomopsis viticola, and P. obscurans was evaluated using 96-well plate microbioassay format. Each chemical was evaluated in duplicate at each dose (0.3, 3.0 and 30.0 μM). […]

B. cinerea = format: cell-based, Botrytis cinerea; conditions: for inhibition at 0.3 µM / inhibition at 3 µM / inhibition at 30 µM: Botrytis cinerea, read-out: Percent inhibition−Percent Stimulation±SEM; for Percent inhibition−Percent Stimulation±SEM: B. cinerea
Excerpt: as §1, §2, §3, §4

C. gloeosporioides = format: cell-based, Colletotrichum gloeosporioides; conditions: for inhibition at 0.3 µM / inhibition at 3 µM / inhibition at 30 µM: Colletotrichum gloeosporioides, read-out: Percent inhibition−Percent Stimulation±SEM; for Percent inhibition−Percent Stimulation±SEM: C. gloeosporioides
Excerpt: as §1, §2, §3, §4

C. fragariae = format: cell-based, Colletotrichum fragariae; conditions: for inhibition at 0.3 µM / inhibition at 3 µM / inhibition at 30 µM: Colletotrichum fragariae, read-out: Percent inhibition−Percent Stimulation±SEM; for Percent inhibition−Percent Stimulation±SEM: C. fragariae
Excerpt: as §1, §2, §3, §4

C. acutatum = format: cell-based, Colletotrichum acutatum; conditions: for inhibition at 0.3 µM / inhibition at 3 µM / inhibition at 30 µM: Colletotrichum acutatum, read-out: Percent inhibition−Percent Stimulation±SEM; for Percent inhibition−Percent Stimulation±SEM: C. acutatum
Excerpt: as §1, §2, §3, §4

SMILES: CCCCNC(=O)n1c(NC(=O)OC)nc2ccccc21 [Benomyl]
- inhibition at 0.3 µM (F. oxysporum; 48 h): 3.3 ± 4.7%
- inhibition at 3 µM (F. oxysporum; 48 h): 12 ± 3%
- inhibition at 30 µM (F. oxysporum; 48 h): 86.3 ± 1.6%
- inhibition at 0.3 µM (F. oxysporum; 72 h): -1.6 ± 3.2%
- inhibition at 3 µM (F. oxysporum; 72 h): 0.8 ± 3.5%
- inhibition at 30 µM (F. oxysporum; 72 h): 77.2 ± 2.3%
- inhibition at 0.3 µM (B. cinerea; 48 h): 50 ± 26.9%
- inhibition at 3 µM (B. cinerea; 48 h): 21.6 ± 27.3%
- inhibition at 30 µM (B. cinerea; 48 h): 39.9 ± 20.4%
- inhibition at 0.3 µM (B. cinerea; 72 h): 71.2 ± 25.1%
- inhibition at 3 µM (B. cinerea; 72 h): 40.9 ± 22%
- inhibition at 30 µM (B. cinerea; 72 h): 47.3 ± 14.9%
- inhibition at 0.3 µM (C. gloeosporioides; 48 h): 47.5 ± 9.2%
- inhibition at 3 µM (C. gloeosporioides; 48 h): 84.2 ± 3.8%
- inhibition at 30 µM (C. gloeosporioides; 48 h): 82.4 ± 4%
- inhibition at 0.3 µM (C. gloeosporioides; 72 h): 16.1 ± 6.5%
- inhibition at 3 µM (C. gloeosporioides; 72 h): 59.9 ± 9.6%
- inhibition at 30 µM (C. gloeosporioides; 72 h): 44.8 ± 8.6%
- inhibition at 0.3 µM (C. fragariae; 48 h): 51.5 ± 5%
- inhibition at 3 µM (C. fragariae; 48 h): 89.6 ± 1.2%
- inhibition at 30 µM (C. fragariae; 48 h): 92.4 ± 1.1%
- inhibition at 0.3 µM (C. fragariae; 72 h): 36.8 ± 4.4%
- inhibition at 3 µM (C. fragariae; 72 h): 92.7 ± 1%
- inhibition at 30 µM (C. fragariae; 72 h): 94.3 ± 0.9%
- inhibition at 0.3 µM (C. acutatum; 48 h): 24.6 ± 6.1%
- inhibition at 3 µM (C. acutatum; 48 h): 20.3 ± 4.8%
- inhibition at 30 µM (C. acutatum; 48 h): 16.6 ± 6.3%
- inhibition at 0.3 µM (C. acutatum; 72 h): -7.7 ± 6.6%
- inhibition at 3 µM (C. acutatum; 72 h): 47.7 ± 4.1%
- inhibition at 30 µM (C. acutatum; 72 h): -15.2 ± 3.7%

SMILES: O=C1c2ccccc2-c2nccc3c2c1nc1ccccc13 [Benzo[4,5]sampangine, benzo[4,5]sampangine]
- Percent inhibition−Percent Stimulation±SEM (F. oxysporum; 0.3 μM, 48 hrs): −48.2 ± 4.4%
- Percent inhibition−Percent Stimulation±SEM (F. oxysporum; 0.3 μM, 72 hrs): −17.1 ± 2.0%
- Percent inhibition−Percent Stimulation±SEM (F. oxysporum; 3.0 μM, 48 hrs): −77.7 ± 5.7%
- Percent inhibition−Percent Stimulation±SEM (F. oxysporum; 3.0 μM, 72 hrs): −27.2 ± 6.2%
- Percent inhibition−Percent Stimulation±SEM (F. oxysporum; 30 μM, 48 hrs): −57.9 ± 3.2%
- Percent inhibition−Percent Stimulation±SEM (F. oxysporum; 30 μM, 72 hrs): −27.2 ± 1.9%
- Percent inhibition−Percent Stimulation±SEM (B. cinerea; 0.3 μM, 48 hrs): −70.2 ± 5.8%
- Percent inhibition−Percent Stimulation±SEM (B. cinerea; 0.3 μM, 72 hrs): −55.2 ± 8.1%
- Percent inhibition−Percent Stimulation±SEM (B. cinerea; 3.0 μM, 48 hrs): −78.0 ± 3.6%
- Percent inhibition−Percent Stimulation±SEM (B. cinerea; 3.0 μM, 72 hrs): −46.7 ± 10.2%
- Percent inhibition−Percent Stimulation±SEM (B. cinerea; 30 μM, 48 hrs): −99.2 ± 19.4%
- Percent inhibition−Percent Stimulation±SEM (B. cinerea; 30 μM, 72 hrs): −22.8 ± 14.7%
- Percent inhibition−Percent Stimulation±SEM (C. gloeosporioides; 0.3 μM, 48 hrs): −100.0 ± 1.0%
- Percent inhibition−Percent Stimulation±SEM (C. gloeosporioides; 0.3 μM, 72 hrs): −100.0 ± 0.3%
- Percent inhibition−Percent Stimulation±SEM (C. gloeosporioides; 3.0 μM, 48 hrs): −98.6 ± 1.1%
- Percent inhibition−Percent Stimulation±SEM (C. gloeosporioides; 3.0 μM, 72 hrs): −99.7 ± 0.4%
- Percent inhibition−Percent Stimulation±SEM (C. gloeosporioides; 30 μM, 48 hrs): −100.0 ± 1.8%
- Percent inhibition−Percent Stimulation±SEM (C. gloeosporioides; 30 μM, 72 hrs): −100.0 ± 0.9%
- Percent inhibition−Percent Stimulation±SEM (C. fragariae; 0.3 μM, 48 hrs): −38.4 ± 6.1%
- Percent inhibition−Percent Stimulation±SEM (C. fragariae; 0.3 μM, 72 hrs): −19.8 ± 7.7%
- Percent inhibition−Percent Stimulation±SEM (C. fragariae; 3.0 μM, 48 hrs): −72.4 ± 8.5%
- Percent inhibition−Percent Stimulation±SEM (C. fragariae; 3.0 μM, 72 hrs): −54.7 ± 11.2%
- Percent inhibition−Percent Stimulation±SEM (C. fragariae; 30 μM, 48 hrs): −52.9 ± 6.5%
- Percent inhibition−Percent Stimulation±SEM (C. fragariae; 30 μM, 72 hrs): −29.4 ± 6.8%
- Percent inhibition−Percent Stimulation±SEM (C. acutatum; 0.3 μM, 48 hrs): −30.5 ± 10.2%
- Percent inhibition−Percent Stimulation±SEM (C. acutatum; 0.3 μM, 72 hrs): −25.9 ± 8.0%
- Percent inhibition−Percent Stimulation±SEM (C. acutatum; 3.0 μM, 48 hrs): −74.2 ± 6.3%
- Percent inhibition−Percent Stimulation±SEM (C. acutatum; 3.0 μM, 72 hrs): −46.2 ± 5.2%
- Percent inhibition−Percent Stimulation±SEM (C. acutatum; 30 μM, 48 hrs): −57.0 ± 10.0%
- Percent inhibition−Percent Stimulation±SEM (C. acutatum; 30 μM, 72 hrs): −38.9 ± 5.2%
